Reference: ChEMBL document CHEMBL3885861, “Open TG-GATES”

Organism: Rattus norvegicus
Assay: Open TG-GATES - Regimen: Daily Repeat
Type: toxicity, organism-based, Sprague-Dawley
Set-up: regimen Daily Repeat, gender Male, age 6 weeks
Settings: in vivo, po, 100 mg/kg, route gavage, dose level High; for APTT / Bas / Eos / Fbg / Hb / Ht / Lym / MCH / MCHC / MCV / Mono / Neu / PT / Plat / RBC / Ret / WBC: tissue Blood; for KIDNEY_L / KIDNEY_R / KIDNEY_TOTAL: tissue Kidney; for LIVER: tissue Liver; for A/G / ALP / ALT / AST / BUN / CRE / Ca / Cl / DBIL / GLC / IP / K / LDH / Na / PL / RALB / TBIL / TC / TG / TP / gamma-GTP: tissue Plasma

Molecule CCCc1cc(=O)[nH]c(=S)[nH]1 [PROPYLTHIOURACIL] has a TERMINAL_BW (72 h, time 3 day) of 209.7 g, an APTT (72 h, time 3 day) of 16 s and a Bas (72 h, time 3 day) of 0%. For the same molecule, the Eos (72 h, time 3 day) was 0.8%, the Fbg (72 h, time 3 day) was 238.8 mg/dL and the Hb (72 h, time 3 day) was 13.2 g/dL. It also gave a Ht (72 h, time 3 day) of 39.6%, a Lym (72 h, time 3 day) of 80.6% and an MCH (72 h, time 3 day) of 22 pg. For the same molecule, the MCHC (72 h, time 3 day) was 33.3%, the MCV (72 h, time 3 day) was 65.9 fL and the Mono (72 h, time 3 day) was 6.4%. For the same molecule, the Neu (72 h, time 3 day) was 12.2%, the PT (72 h, time 3 day) was 12.1 s and the Plat (72 h, time 3 day) was 110 x10_4/uL. It also gave an RBC (72 h, time 3 day) of 601.4 x10_4/ul, a Ret (72 h, time 3 day) of 7.1% and a WBC (72 h, time 3 day) of 144 x10_2/uL. The KIDNEY_L (72 h, time 3 day) was 0.9 g, the KIDNEY_R (72 h, time 3 day) was 0.9 g and the KIDNEY_TOTAL (72 h, time 3 day) was 1.8 g. The LIVER (72 h, time 3 day) was 12.2 g, the A/G (72 h, time 3 day) was 1.7 and the ALP (72 h, time 3 day) was 870.8 IU/L. For the same molecule, the ALT (72 h, time 3 day) was 36.4 IU/L, the AST (72 h, time 3 day) was 60.4 IU/L and the BUN (72 h, time 3 day) was 20.2 mg/dL. It also gave a CRE (72 h, time 3 day) of 0.5 mg/dL, a Ca (72 h, time 3 day) of 11.5 mg/dL and a Cl (72 h, time 3 day) of 105.4 meq/L. It also gave a DBIL (72 h, time 3 day) of 0.008 mg/dL, a GLC (72 h, time 3 day) of 191.6 mg/dL and an IP (72 h, time 3 day) of 7.1 mg/dL. It also gave a K (72 h, time 3 day) of 4.5 meq/L, an LDH (72 h, time 3 day) of 181.2 IU/L and a Na (72 h, time 3 day) of 138.6 meq/L. The PL (72 h, time 3 day) was 199.6 mg/dL, the RALB (72 h, time 3 day) was 3.8 g/dL and the TBIL (72 h, time 3 day) was 0.3 mg/dL. The TC (72 h, time 3 day) was 116.2 mg/dL, the TG (72 h, time 3 day) was 94.2 mg/dL and the TP (72 h, time 3 day) was 6.1 g/dL. The gamma-GTP (72 h, time 3 day) was 1 IU/L, the TERMINAL_BW ([…], time 7 day) was 223.8 g and the TERMINAL_BW ([…], time 14 day) was 241.1 g. The TERMINAL_BW ([…], time 28 day) was 232 g, the APTT ([…], time 7 day) was 15.8 s and the Bas ([…], time 7 day) was 0%. The Eos ([…], time 7 day) was 1%, the Fbg ([…], time 7 day) was 239.2 mg/dL and the Hb ([…], time 7 day) was 13.7 g/dL. It also gave a Ht ([…], time 7 day) of 41.4%, a Lym ([…], time 7 day) of 81.2% and an MCH ([…], time 7 day) of 20.9 pg. For the same molecule, the MCHC ([…], time 7 day) was 33.1%, the MCV ([…], time 7 day) was 63.2 fL and the Mono ([…], time 7 day) was 5.4%. The Neu ([…], time 7 day) was 12.4%, the PT ([…], time 7 day) was 13 s and the Plat ([…], time 7 day) was 113.5 x10_4/uL. The RBC ([…], time 7 day) was 655.4 x10_4/ul, the Ret ([…], time 7 day) was 3.8% and the WBC ([…], time 7 day) was 123.8 x10_2/uL. For the same molecule, the APTT ([…], time 14 day) was 17 s, the Bas ([…], time 14 day) was 0% and the Eos ([…], time 14 day) was 0%. It also gave a Fbg ([…], time 14 day) of 189.4 mg/dL, a Hb ([…], time 14 day) of 14 g/dL and a Ht ([…], time 14 day) of 41.9%. It also gave a Lym ([…], time 14 day) of 79.4%, an MCH ([…], time 14 day) of 20.3 pg and an MCHC ([…], time 14 day) of 33.3%. The MCV ([…], time 14 day) was 61.1 fL, the Mono ([…], time 14 day) was 6.2% and the Neu ([…], time 14 day) was 14.4%. The PT ([…], time 14 day) was 13.9 s, the Plat ([…], time 14 day) was 93.2 x10_4/uL and the RBC ([…], time 14 day) was 686.2 x10_4/ul. The Ret ([…], time 14 day) was 1.6%, the WBC ([…], time 14 day) was 99.7 x10_2/uL and the APTT ([…], time 28 day) was 15.3 s. It also gave a Bas ([…], time 28 day) of 0%, an Eos ([…], time 28 day) of 0.8% and a Fbg ([…], time 28 day) of 180.4 mg/dL. The Hb ([…], time 28 day) was 15.5 g/dL, the Ht ([…], time 28 day) was 45.8% and the Lym ([…], time 28 day) was 84.6%. The MCH ([…], time 28 day) was 19.6 pg, the MCHC ([…], time 28 day) was 33.8% and the MCV ([…], time 28 day) was 57.9 fL. For the same molecule, the Mono ([…], time 28 day) was 4.8%, the Neu ([…], time 28 day) was 9.8% and the PT ([…], time 28 day) was 14.8 s. For the same molecule, the Plat ([…], time 28 day) was 86 x10_4/uL, the RBC ([…], time 28 day) was 791.8 x10_4/ul and the Ret ([…], time 28 day) was 0.7%. For the same molecule, the WBC ([…], time 28 day) was 66.5 x10_2/uL, the KIDNEY_L ([…], time 7 day) was 0.9 g and the KIDNEY_R ([…], time 7 day) was 0.9 g. The KIDNEY_TOTAL ([…], time 7 day) was 1.8 g, the KIDNEY_L ([…], time 14 day) was 0.9 g and the KIDNEY_R ([…], time 14 day) was 0.9 g. It also gave a KIDNEY_TOTAL ([…], time 14 day) of 1.9 g, a KIDNEY_L ([…], time 28 day) of 0.8 g and a KIDNEY_R ([…], time 28 day) of 0.8 g. It also gave a KIDNEY_TOTAL ([…], time 28 day) of 1.6 g, an LIVER ([…], time 7 day) of 12.7 g and an LIVER ([…], time 14 day) of 12 g. It also gave an LIVER ([…], time 28 day) of 9.8 g, an A/G ([…], time 7 day) of 1.8 and an ALP ([…], time 7 day) of 839.6 IU/L. For the same molecule, the ALT ([…], time 7 day) was 29.6 IU/L, the AST ([…], time 7 day) was 57.8 IU/L and the BUN ([…], time 7 day) was 20.6 mg/dL. For the same molecule, the CRE ([…], time 7 day) was 0.5 mg/dL, the Ca ([…], time 7 day) was 11.5 mg/dL and the Cl ([…], time 7 day) was 106.8 meq/L. For the same molecule, the DBIL ([…], time 7 day) was 0.016 mg/dL, the GLC ([…], time 7 day) was 172 mg/dL and the IP ([…], time 7 day) was 6.8 mg/dL. The K ([…], time 7 day) was 4.5 meq/L, the LDH ([…], time 7 day) was 161.4 IU/L and the Na ([…], time 7 day) was 140.2 meq/L. The PL ([…], time 7 day) was 166.6 mg/dL, the RALB ([…], time 7 day) was 4.3 g/dL and the TBIL ([…], time 7 day) was 0.3 mg/dL. It also gave a TC ([…], time 7 day) of 101.6 mg/dL, a TG ([…], time 7 day) of 79.6 mg/dL and a TP ([…], time 7 day) of 6.7 g/dL. It also gave a gamma-GTP ([…], time 7 day) of 1.2 IU/L, an A/G ([…], time 14 day) of 1.8 and an ALP ([…], time 14 day) of 489.4 IU/L. For the same molecule, the ALT ([…], time 14 day) was 27.8 IU/L, the AST ([…], time 14 day) was 56.4 IU/L and the BUN ([…], time 14 day) was 23.4 mg/dL. For the same molecule, the CRE ([…], time 14 day) was 0.7 mg/dL, the Ca ([…], time 14 day) was 11.4 mg/dL and the Cl ([…], time 14 day) was 107.4 meq/L. For the same molecule, the DBIL ([…], time 14 day) was 0.016 mg/dL, the GLC ([…], time 14 day) was 176.4 mg/dL and the IP ([…], time 14 day) was 6.3 mg/dL. The K ([…], time 14 day) was 4 meq/L, the LDH ([…], time 14 day) was 152.8 IU/L and the Na ([…], time 14 day) was 141.8 meq/L. For the same molecule, the PL ([…], time 14 day) was 144.8 mg/dL, the RALB ([…], time 14 day) was 4.4 g/dL and the TBIL ([…], time 14 day) was 0.2 mg/dL. It also gave a TC ([…], time 14 day) of 94.2 mg/dL, a TG ([…], time 14 day) of 32.6 mg/dL and a TP ([…], time 14 day) of 7 g/dL. The gamma-GTP ([…], time 14 day) was 1.6 IU/L, the A/G ([…], time 28 day) was 2 and the ALP ([…], time 28 day) was 528 IU/L. It also gave an ALT ([…], time 28 day) of 34 IU/L, an AST ([…], time 28 day) of 65.4 IU/L and a BUN ([…], time 28 day) of 26.8 mg/dL. It also gave a CRE ([…], time 28 day) of 0.7 mg/dL, a Ca ([…], time 28 day) of 10.8 mg/dL and a Cl ([…], time 28 day) of 108 meq/L. It also gave a DBIL ([…], time 28 day) of 0.054 mg/dL, a GLC ([…], time 28 day) of 162 mg/dL and an IP ([…], time 28 day) of 5.5 mg/dL. The K ([…], time 28 day) was 4.1 meq/L, the LDH ([…], time 28 day) was 121.8 IU/L and the Na ([…], time 28 day) was 143.6 meq/L. For the same molecule, the PL ([…], time 28 day) was 153 mg/dL, the RALB ([…], time 28 day) was 4.5 g/dL and the TBIL ([…], time 28 day) was 0.2 mg/dL. It also gave a TC ([…], time 28 day) of 101.2 mg/dL, a TG ([…], time 28 day) of 34.6 mg/dL and a TP ([…], time 28 day) of 6.8 g/dL. The gamma-GTP ([…], time 28 day) was 2.8 IU/L.
